# From patent publication US6531477B1, “6-substituted pyrazolo [3,4-d] pyrimidin-4-ones useful as cyclin dependent kinase inhibitors” (DuPont Pharmaceuticals Company, priority 1998, dated 2003)
row,Compound,melting point
1,CCc1nn(-c2c(Cl)cc(C(=O)O)cc2Cl)c2nc(Cc3cccc(O)c3)[nH]c(=O)c12 [Example 198],280 to 282 °C
2,CCc1nn(-c2c(Cl)cccc2Cl)c2nc(Cc3cccc(O)c3)[nH]c(=O)c12 [Example 173],242 to 244 °C
3,Cc1cccc(Cl)c1-n1nc(C(C)C)c2c(=O)[nH]c(Cc3ccc(N)cc3)nc21 [Example 199],205 to 206 °C
4,"CSc1[nH]n(-c2c(Cl)cc(Cl)cc2Cl)c2nc(Cc3cccc(O)c3)nc(=O)c1-2 [Example 2, 1-(2,4,6-Trichlorophenyl)-3-(methylthio)-6-(3-hydroxybenzyl)pyrazolo[3,4-d]pyrimidin-4-one]",264 to 266 °C
5,"CC(C)c1[nH]n(-c2c(Cl)cc(Cl)cc2Cl)c2nc(Cc3ccc(NC(=O)OCCN(C)C)cc3)nc(=O)c1-2 [Example 133, 1-(2,4,6-Trichlorophenyl)-3-isopropyl-6-(4-(2-(dimethylamino)ethoxycarbonylamino)benzyl)pyrazolo[3,4-d]pyrimidin-4-one]",218 to 220 °C
6,Cc1ccncc1Cc1nc2c(c(C(C)C)nn2-c2c(Cl)cc(Cl)cc2Cl)c(=O)[nH]1 [Example 65],225 to 227 °C
7,"COc1cccc(Cc2nc3n(-c4c(Cl)cc(Cl)cc4Cl)[nH]c(SC)c-3c(=O)n2)c1 [Example 1, 1-(2,4,6-Trichlorophenyl)-3-(methylthio)-6-(3-methoxybenzyl)pyrazolo[3,4-d]pyrimidin-4-one]",245 to 248 °C
8,COc1ccc(Cc2nc3c(c(SC)nn3-c3c(F)cccc3Cl)c(=O)[nH]2)cc1 [Example 181],193 to 194 °C
9,CSc1nn(-c2ccccc2Cl)c2nc(Cc3ccc(O)cc3)[nH]c(=O)c12 [Example 149],243 to 244 °C
10,CSc1nn(-c2c(Cl)cc(Cl)cc2Cl)c2nc(Cc3ccc(O)cc3)[nH]c(=O)c12 [Example 9],294 to 296 °C
11,CCc1nn(-c2c(Cl)cccc2Cl)c2nc(Cc3ccc(O)cc3)[nH]c(=O)c12 [Example 171],262 to 263 °C
12,CCc1nn(-c2c(Cl)cc(Cl)cc2Cl)c2nc(Cc3c[nH]c4ccccc34)[nH]c(=O)c12 [Example 18],296 to 299 °C
13,COc1ccc(Cc2nc3c(c(SC)nn3-c3c(C)cc(Cl)cc3Cl)c(=O)[nH]2)cc1 [Example 185],252 to 255 °C
14,"CC(C)c1[nH]n(-c2c(Cl)cccc2Cl)c2nc(Cc3ccc(CC(=O)O)cc3)nc(=O)c1-2 [Example 123, 1-(2,6-Dichlorophenyl)-3-isopropyl-6-(4-(carboxymethyl)benzyl)pyrazolo[3,4-d]pyrimidin-4-one]",212 to 214 °C
15,CCc1nn(-c2c(Cl)cc(Br)cc2Cl)c2nc(Cc3cccc(OC)c3)[nH]c(=O)c12 [Example 174],232 to 233 °C
16,CCc1nn(-c2ccccc2Br)c2nc(Cc3cccc(O)c3)[nH]c(=O)c12 [Example 153],199 to 201 °C
17,CCc1nn(-c2c(Cl)cc(C(=O)O)cc2Cl)c2nc(Cc3ccc(OC)cc3)[nH]c(=O)c12 [Example 195],292 to 294 °C
18,CC(C)c1nn(-c2c(Cl)cc(Cl)cc2Cl)c2nc(Cc3cccnc3)[nH]c(=O)c12 [Example 64],214 to 215 °C
19,CC(C)c1nn(-c2c(Cl)cc(Cl)cc2Cl)c2nc(Cc3cnccc3Cl)[nH]c(=O)c12 [Example 69],245 to 248 °C
20,CCc1nn(-c2c(Cl)cc(C(=O)NC(C)(C)C)cc2Cl)c2nc(Cc3cccc(OC)c3)[nH]c(=O)c12 [Example 238],222 to 224 °C
21,COc1ccc(Cc2nc3c(c(SC)nn3-c3c(Cl)cc(Cl)cc3Cl)c(=O)[nH]2)cc1OC [Example 6],226 to 230 °C

row,Compound,melting point
1,CCc1nn(-c2ccccc2Br)c2nc(Cc3cccc(OC)c3)[nH]c(=O)c12 [Example 151],178 to 180 °C
2,CCc1nn(-c2ccccc2Br)c2nc(Cc3ccc(N)cc3)[nH]c(=O)c12 [Example 152],246 to 249 °C
3,CSc1nn(-c2c(Cl)cc(Cl)cc2Cl)c2nc(Cc3cccc([N+](=O)[O-])c3)[nH]c(=O)c12 [Example 7],243 to 255 °C
4,CC(C)c1nn(-c2c(Cl)cc(Cl)cc2Cl)c2nc(Cc3ccc(N)cc3)[nH]c(=O)c12 [Example 52],223 to 225 °C
5,"CCOC(=O)Cc1ccc(Cc2nc3n(-c4c(Cl)cccc4Cl)[nH]c(C(C)C)c-3c(=O)n2)cc1 [Example 122, 1-(2,6-Dichlorophenyl)-3-isopropyl-6-(4-(carbethoxymethyl)benzyl)pyrazolo[3,4-d]pyrimidin-4-one]",168 to 169 °C
6,COc1ccc(Cc2nc3c(c(C(F)(F)F)nn3-c3c(Cl)cc(Cl)cc3Cl)c(=O)[nH]2)cc1 [Example 82],263 to 265 °C
7,CCc1nn(-c2ccccc2F)c2nc(Cc3ccc(N)cc3)[nH]c(=O)c12 [Example 157],231 to 233 °C
8,Cc1cc(Cl)cc(Cl)c1-n1nc(C(C)C)c2c(=O)[nH]c(Cc3ccc(N)cc3)nc21 [Example 217],212 to 213 °C
9,COc1cccc(Cc2nc3c(c(C(C)C)nn3-c3c(Cl)cc(S(N)(=O)=O)cc3Cl)c(=O)[nH]2)c1 [Example 225],244 to 245 °C
10,COc1ccc(Cc2nc3c(c(SC)nn3-c3c(C)cccc3Cl)c(=O)[nH]2)cc1 [Example 186],233 to 235 °C
11,CCc1nn(-c2ccccc2F)c2nc(Cc3cccc(OC)c3)[nH]c(=O)c12 [Example 154],193 to 194 °C
12,"Cc1cccc(Cl)c1-n1[nH]c(C(C)C)c2c(=O)nc(Cc3ccc(N)cc3)nc1-2 [Example 127, 1-(2-Chloro-6-methylphenyl)-3-isopropyl-6-(4-aminobenzyl)pyrazolo[3,4-d]pyrimidin-4-one]",206 to 207 °C
13,CSc1nn(-c2c(F)cccc2Cl)c2nc(Cc3cccc(O)c3)[nH]c(=O)c12 [Example 179],252 to 253 °C
14,CC(C)c1nn(-c2ccccc2Cl)c2nc(Cc3cccc(O)c3)[nH]c(=O)c12 [Example 143],227 to 228 °C
15,Cc1ccc(Cc2nc3c(c(C(C)C)nn3-c3c(Cl)cc(Cl)cc3Cl)c(=O)[nH]2)cc1 [Example 62],205 to 206 °C
16,CCc1nn(-c2ccccc2F)c2nc(Cc3cccc(O)c3)[nH]c(=O)c12 [Example 155],235 to 237 °C
17,CSc1nn(-c2c(Cl)cc(Cl)cc2Cl)c2nc(Cc3ccc4c(c3)OCO4)[nH]c(=O)c12 [Example 13],257 to 260 °C
18,CCc1nn(-c2c(Cl)cccc2Cl)c2nc(Cc3cccc(OC)c3)[nH]c(=O)c12 [Example 177],186 to 187 °C
19,COc1cccc(Cc2nc3c(c(CO)nn3-c3c(Cl)cc(Cl)cc3Cl)c(=O)[nH]2)c1 [Example 208],227 to 229 °C
20,CCc1nn(-c2c(C)cc(Cl)cc2Cl)c2nc(Cc3ccc(OC)cc3)[nH]c(=O)c12 [Example 187],245 to 246 °C
21,CCc1nn(-c2c(Cl)cc(Br)cc2Cl)c2nc(Cc3ccc(O)cc3)[nH]c(=O)c12 [Example 169],284 to 286 °C

row,Compound,melting point
1,CCc1nn(-c2c(Cl)cc(Cl)cc2Cl)c2nc(Cc3cc(OC)c(OC)c(OC)c3)[nH]c(=O)c12 [Example 24],224 to 226 °C
2,CC(C)c1nn(-c2c(Cl)cc(Cl)cc2Cl)c2nc(Cc3ccncc3)[nH]c(=O)c12 [Example 61],273 to 275 °C
3,CCc1nn(-c2c(Cl)cc(C(=O)O)cc2Cl)c2nc(Cc3ccc(O)cc3)[nH]c(=O)c12 [Example 196],308 to 310 °C
4,CCc1nn(-c2c(Cl)cc(C(F)(F)F)cc2Cl)c2nc(Cc3ccc(OC)cc3)[nH]c(=O)c12 [Example 168],240 to 241 °C
5,CC(C)c1nn(-c2c(Cl)cc(Cl)cc2Cl)c2nc(Cc3ccccn3)[nH]c(=O)c12 [Example 60],214 to 215 °C
6,CCc1nn(-c2c(C)cccc2Cl)c2nc(Cc3ccc(O)cc3)[nH]c(=O)c12 [Example 184],255 to 256 °C
7,CCc1nn(-c2c(Cl)cc(Cl)cc2Cl)c2nc(Cc3ccc(O)c([N+](=O)[O-])c3)[nH]c(=O)c12 [Example 26],263 to 266 °C
8,"COc1cccc(Cc2nc3n(-c4c(Cl)cc(C=O)cc4Cl)[nH]c(C(C)C)c-3c(=O)n2)c1 [Example 138, 1-(2,6-Dichloro-4-formylphenyl)-3-isopropyl-6-(3-methoxybenzyl)pyrazolo[3,4-d]pyrimidin-4-one]",212 to 214 °C
9,CCNC(=O)c1cc(Cl)c(-n2nc(CC)c3c(=O)[nH]c(Cc4cccc(OC)c4)nc32)c(Cl)c1 [Example 236],226 to 228 °C
10,CSc1nn(-c2c(C)cc(Cl)cc2Cl)c2nc(Cc3ccc(O)cc3)[nH]c(=O)c12 [Example 188],277 to 279 °C
11,COc1ccc(Cc2nc3c(c(SC)nn3-c3c(Cl)cc(Br)cc3Cl)c(=O)[nH]2)cc1 [Example 183],267 to 268 °C
12,CSc1nn(-c2c(F)cccc2Cl)c2nc(Cc3ccc(O)cc3)[nH]c(=O)c12 [Example 178],267 to 268 °C
13,CC(C)c1nn(-c2c(Cl)cc(Cl)cc2Cl)c2nc(Cc3ccc(Br)cc3)[nH]c(=O)c12 [Example 59],229 to 230 °C
14,CCc1nn(-c2cc(C(F)(F)F)ccc2Cl)c2nc(Cc3cccc(O)c3)[nH]c(=O)c12 [Example 227],227 to 229 °C
15,CCc1nn(-c2c(Cl)cc(Br)cc2Cl)c2nc(Cc3ccc(OC)cc3)[nH]c(=O)c12 [Example 175],252 to 253 °C
16,CCc1nn(-c2c(C)cccc2Cl)c2nc(Cc3ccc(OC)cc3)[nH]c(=O)c12 [Example 191],220 to 221 °C
17,O=c1[nH]c(Cc2ccc([N+](=O)[O-])c(O)c2)nc2c1c(C1CC1)nn2-c1c(Cl)cc(Cl)cc1Cl [Example 76],259 to 260 °C
18,COc1cc(Cc2nc3c(c(C(C)C)nn3-c3c(Cl)cc(Cl)cc3Cl)c(=O)[nH]2)ccc1N [Example 54],238 to 240 °C
19,"CCc1[nH]n(-c2c(Cl)cc(Cl)cc2Cl)c2nc(C(O)c3ccccc3)nc(=O)c1-2 (racemic) [Example 117, (+/−)-1-(2,4,6-Trichlorophenyl)-3-ethyl-6-(α-hydroxybenzyl)pyrazolo[3,4-d]pyrimidin-4-one]",246 to 248 °C
